Among the data in patent US6605634B2 (Amgen, Inc., priority 1996, dated 2003) are IC50 values, retold here.

For the assay, the system named is production of tumor necrosis factor (TNF) by monocytes activated with bacterial lipopolysaccharide (LPS). The assay can be described thus: Lipopolysaccharide-activated Monocyte TNF Production Assay. As to conditions: Homo sapiens, TNF in culture supernatants by ELISA, read-out: IC50 (concentration of test compounds causing a 50% reduction in TNF production). It is filed as cell-based. As to the method:
Lipopolysaccharide-activated Monocyte TNF Production Assay
Test compounds were evaluated in vitro for the ability to inhibit the production of tumor necrosis factor (TNF) by monocytes activated with bacterial lipopolysaccharide (LPS). Fresh residual source leukocytes (a byproduct of plateletpheresis) were obtained from the local blood bank and peripheral blood mononuclear cells (PBMCs) were isolated by density gradient centrifugation on Ficol-Paque Plus (Pharmacia). PBMCs were suspended at 2×10^6/ml in DMEM supplemented to contain 2% FCS (10 mM), 0.3 mg/ml glutamate, 100 U/ml penicillin G and […] streptomycin sulfate (complete media). Cells were plated into Falcon flatbottom 96 well culture plates (200 μl/well) and cultured overnight at 37° C. and 6% CO2. Nonadherent cells were removed by washing with 200 μl/well of fresh medium. Wells containing adherent cells (˜70% monocytes) were replenished with 100 μl of fresh medium.
Preparation of Test Compound Stock Solutions
Test compounds were dissolved in […]. Compound stock solutions were prepared to an initial concentration of […]. Stocks were diluted initially to 20-200 μM in complete media. Nine two-fold serial dilutions of each compound were then prepared in complete medium.
Treatment of Cells with Test Compounds and Activation of TNF Production with Lipopolysaccharide
One hundred microliters of each test compound dilution were added to microtiter wells containing adherent monocytes and 100 μl complete medium. Monocytes were cultured with test compounds for 60 min at which time 25 μl of complete medium containing 30 ng/ml lipopolysaccharide from E. coli K532 were added to each well. Cells were cultured an additional 4 hrs. Culture supernatants were then removed and TNF present in the supernatants was quantified using an ELISA.
Flat bottom 96 well Coming High Binding ELISA plates were coated overnight (4° C.) with 150 μL/well of 3 μg/ml murine anti-human TNFa MAb (R&D Systems #MAB210). Wells were then blocked 1 h at room temperature with 200 μL/well of CaCl2-free ELISA buffer supplemented to contain 20 mg/ml BSA (standard ELISA buffer: […], 150 mM NaCl, 2 mM CaCl2, 0.15 mM thimerosal, pH 7.4). Plates were washed and replenished with 100 μl of test supernatants (diluted 1:3) or standards. Standards consisted of eleven 1.5-fold serial dilutions from a stock of 1 ng/ml recombinant human TNF (R&D Systems). Plates were incubated at room temperature for 1 h on orbital shaker (300 rpm), washed and replenished with 100 μl/well of 0.5 jig/ml goat anti-human TNFa (R&D systems #AB-210-NA) biotinylated at a 4:1 ratio. Plates were incubate for 40 min, washed and replenished with 100 μl/well of alkaline phosphatase-conjugated streptavidin (Jackson ImmunoResearch #016-050-084) at 0.02 μg/ml. Plates were incubated 30 min, washed and replenished with 200 μl well of 1 mg/ml of p-nitrophenyl phosphate. After 30 min, plates were read at 405 nm on a Vmax plate reader.
Standard curve data were fit to a second order polynomial and unknown TNF-a concentrations determined from their OD by solving this equation for concentration. TNF concentrations were then plotted Vs test compound concentration using a second order polynomial. This equation was then used to calculate the concentration of test compounds causing a 50% reduction in TNF production.

Bounds are passed on as bounds.

On to `O=S(=O)(Nc1ccc2c(-c3ccncc3)c(-c3ccc(F)cc3)[nH]c2n1)c1ccc(Cl)s1` [Compound 95, 6-(2′-(5-chlorothienyl)sulfonylamino)-3-(4-pyridyl)-2-(4-fluorophenyl)-7-aza-indole], for which the IC50 is < 20 µM.
For `O=C(CCN1C(=O)c2ccccc2C1=O)Nc1ccc2c(-c3ccncc3)c(-c3ccc(F)cc3)[nH]c2n1` [Compound 98, 6-(3′-N-phthaloyl-1′-oxo-propylamino)-3-(4-pyridyl)-2-(4-fluorophenyl)-7-aza-indole], the IC50 is < 20 µM.
In the case of `Fc1ccc(-c2[nH]c3nccnc3c2-c2ccncc2)cc1` [Compound 99, 3-(4-pyridyl)-2-(4-fluorophenyl)-4,7-diaza-indole] it was < 20 µM; in that of `CC(C)(C)OC(=O)N1CCC[C@H]1C(=O)Nc1ccc2c(-c3ccncc3)c(-c3ccc(F)cc3)[nH]c2n1` [Compound 100, 6-(2′-N-t-Butoxycarbonyl-L-prolylamino)-3-(4-pyridyl)-2-(4-fluorophenyl)-7-aza-indole], < 20 µM.
Consider `O=C(Nc1ccc2c(-c3ccncc3)c(-c3ccc(F)cc3)[nH]c2n1)[C@@H]1CCCN1` [Compound 101, 6-(2′-L-prolylamino)-3-(4-pyridyl)-2-(4-fluorophenyl)-7-aza-indole], for which the IC50 is < 20 µM.
With `C[C@@H](C(=O)Nc1ccc2c(-c3ccncc3)c(-c3ccc(F)cc3)[nH]c2n1)N(C)C` [Compound 102, 6-(2S′-dimethylamino-1′-oxo-propylamino)-3-(4-pyridyl)-2-(4-fluorophenyl)-7-aza-indole], the IC50 was < 1 µM.
With `CN(C)CC(=O)Nc1ccc2c(-c3ccncc3)c(-c3ccc(F)cc3)[nH]c2n1` [Compound 103, 6-(2′-Dimethylamino-1′-oxo-ethylamino)-3-(4-pyridyl)-2-(4-fluorophenyl)-7-aza-indole], the IC50 is < 20 µM.
Turning to `CN(CC(=O)Nc1ccc2c(-c3ccncc3)c(-c3ccc(F)cc3)[nH]c2n1)C(=O)OC(C)(C)C` [Compound 104, 6-(2′-N-methyl-t-butoxycarbonylamino-1′-oxo-ethylamino)-3-(4-pyridyl)-2-(4-fluorophenyl)-7-aza-indole], the IC50 was < 1 µM.
As for `CNCC(=O)Nc1ccc2c(-c3ccncc3)c(-c3ccc(F)cc3)[nH]c2n1` [Compound 105, 6-(2′-N-methyl-amino-1′-oxo-ethylamino)-3-(4-pyridyl)-2-(4-fluorophenyl)-7-aza-indole], the IC50 is < 1 µM.
In the case of `CC(C)(C)OC(=O)N1CCC(C(=O)Nc2ccc3c(-c4ccncc4)c(-c4ccc(F)cc4)[nH]c3n2)CC1` [Compound 106, 6-(4′-N-t-butoxycarbonylisonipecotylamino)-3-(4-pyridyl)-2-(4-fluorophenyl)-7-aza-indole] it was < 1 µM; in that of `O=C(Nc1ccc2c(-c3ccncc3)c(-c3ccc(F)cc3)[nH]c2n1)C1CCNCC1` [Compound 107, 6-(4′-isonipecotylamino)-3-(4-pyridyl)-2-(4-fluorophenyl)-7-aza-indole], < 1 µM.
In the case of `C[S+]([O-])CC[C@H](NC(=O)OC(C)(C)C)C(=O)Nc1ccc2c(-c3ccncc3)c(-c3ccc(F)cc3)[nH]c2n1` (stereo partly shown) [Compound 108, 6-(4′-methylsulfoxo-1′-oxo-2′S-t-butoxycarbonylaminobutylamino)-3-(4-pyridyl)-2-(4-fluorophenyl)-7-aza-indole] it was < 20 µM.
Turning to `C[S+]([O-])CC[C@H](N)C(=O)Nc1ccc2c(-c3ccncc3)c(-c3ccc(F)cc3)[nH]c2n1` (stereo partly shown) [Compound 109, 6-(4′-methylsulfoxo-1′-oxo-2′S-aminobutylamino)-3-(4-pyridyl)-2-(4-fluorophenyl)-7-aza-indole], the IC50 was < 20 µM.
With `CC(C)(C)OC(=O)N[C@@H](Cc1cccnc1)C(=O)Nc1ccc2c(-c3ccncc3)c(-c3ccc(F)cc3)[nH]c2n1` [Compound 110, 6-(3′-(3-pyridyl)-1′-oxo-2′S-t-butoxycarbonylaminopropylamino)-3-(4-pyridyl)-2-(4-fluorophenyl)-7-aza-indole], the IC50 is < 20 µM.
With `N[C@@H](Cc1cccnc1)C(=O)Nc1ccc2c(-c3ccncc3)c(-c3ccc(F)cc3)[nH]c2n1` [Compound 111, 6-(3′-(3-pyridyl)-1′-oxo-2′S-aminopropylamino)-3-(4-pyridyl)-2-(4-fluorophenyl)-7-aza-indole], the IC50 is < 20 µM.
Consider `CC(C)(C)OC(=O)N[C@@H](Cc1cncn1C(=O)OC(C)(C)C)C(=O)Nc1ccc2c(-c3ccncc3)c(-c3ccc(F)cc3)[nH]c2n1` [Compound 112], for which the IC50 is < 20 µM.
Consider `N[C@@H](Cc1cnc[nH]1)C(=O)Nc1ccc2c(-c3ccncc3)c(-c3ccc(F)cc3)[nH]c2n1` [Compound 113, 6-(L-histidinylamino)-3-(4-pyridyl)-2-(4-fluorophenyl)-7-aza-indole], for which the IC50 is < 20 µM.
For the molecule `O=C(Nc1ccc2c(-c3ccncc3)c(-c3ccc(F)cc3)[nH]c2n1)[C@@H]1Cc2ccccc2CN1` [Compound 115, 6-(3(S) 1′,2′,3′,4′-tetrahydro-3′-isoguinolinyloxoamino)-3-(4-pyridyl)-2-(4-fluorophenyl)-7-aza-indole], the IC50 is < 20 µM.
As to `N[C@@H](C(=O)Nc1ccc2c(-c3ccncc3)c(-c3ccc(F)cc3)[nH]c2n1)c1ccccc1` [Compound 117, 6-(2′-phenyl-1′-oxo-2′R-aminoethylamino)-3-(4-pyridyl)-2-(4-fluorophenyl)-7-aza-indole], the IC50 is < 1 µM.
As to `N[C@H](C(=O)Nc1ccc2c(-c3ccncc3)c(-c3ccc(F)cc3)[nH]c2n1)c1ccccc1` [Compound 119, 6-(2′-phenyl-1′-oxo-2′S-aminoethylamino)-3-(4-pyridyl)-2-(4-fluorophenyl)-7-aza-indole], the IC50 was < 1 µM.
In the case of `CN[C@@H](C(=O)Nc1ccc2c(-c3ccncc3)c(-c3ccc(F)cc3)[nH]c2n1)c1ccccc1` [Compound 121, 6-(2′-phenyl-1′-oxo-2′R-N-methylaminoethylamino)-3-(4-pyridyl)-2-(4-fluorophenyl)-7-aza-indole], the IC50 was < 1 µM.
For `C[C@H](N)C(=O)Nc1ccc2c(-c3ccncc3)c(-c3ccc(F)cc3)[nH]c2n1` [Compound 123, 6-(1′-oxo-2′S-aminopropylamino)-3-(4-pyridyl)-2-(4-fluorophenyl)-7-aza-indole], the IC50 is < 1 µM.
`N[C@@H](Cc1ccccc1)C(=O)Nc1ccc2c(-c3ccncc3)c(-c3ccc(F)cc3)[nH]c2n1` [Compound 125, 6-(3′-phenyl-1′-oxo-2′-(L)-aminopropylamino)-3-(4-pyridyl)-2-(4-fluorophenyl)-7-aza-indole]: the IC50 was < 20 µM.
Regarding `CN[C@@H](C)C(=O)Nc1ccc2c(-c3ccncc3)c(-c3ccc(F)cc3)[nH]c2n1` [Compound 127, 6-(1′-oxo-2′S-N-methylaminopropylamino)-3-(4-pyridyl)-2-(4-fluorophenyl)-7-aza-indole], the IC50 is < 1 µM.
`CN[C@@H](CC(C)C)C(=O)Nc1ccc2c(-c3ccncc3)c(-c3ccc(F)cc3)[nH]c2n1` [Compound 129, 6-(1′-oxo-2′S-N-methyl-4-methyl-2-aminopentylamino)-3-(4-pyridyl)-2-(4-fluorophenyl)-7-aza-indole]: the IC50 was < 20 µM.
Then `C[C@@H](N)C(=O)Nc1ccc2c(-c3ccncc3)c(-c3ccc(F)cc3)[nH]c2n1` [Compound 131, 6-(1′-oxo-2′R-aminopropylamino)-3-(4-pyridyl)-2-(4-fluorophenyl)-7-aza-indole], with < 1 µM; and `N[C@@H](Cc1cccs1)C(=O)Nc1ccc2c(-c3ccncc3)c(-c3ccc(F)cc3)[nH]c2n1` [Compound 133, 6-(3′-(2-thienyl)-1′-oxo-2′-(L)-aminopropylamino)-3-(4-pyridyl)-2-(4-fluorophenyl)-7-aza-indole], with < 20 µM.
Consider `[N-]=[N+]=Nc1ccc(C[C@H](N)C(=O)Nc2ccc3c(-c4ccncc4)c(-c4ccc(F)cc4)[nH]c3n2)cc1` [Compound 135, 6-(3′-(4-azidophenyl)-1′-oxo-2′S-aminopropylamino)-3-(4-pyridyl)-2-(4-fluorophenyl)-7-aza-indole], for which the IC50 was < 20 µM.
